According to patent EP0571928A1, “Acyclic Tocotrienol analogs in the treatment of hypercholesterolemia and hyperlipidemia” (Bristol-Myers Squibb Company, priority 1992, dated 1993):

Key:
HMGR = test: In vivo evaluation in normocholesterolemic chickens - specific activity of HMGR; conditions: 6-week old male chickens, 50 ppm in diet for four weeks
Protocol: (§1) In Vivo Biological Evaluation in Normocholesterolemic Chickens
(§2) Newborn male chicks (10 for each group) were raised on a standard corn-soybean based control diet for two weeks and then switched to either control or experimental diets for four weeks. Drug treatment consisted of the addition of test compounds to the corn-soybean-based diet at a concentration of 50 ppm. At the end of the feeding period, all the birds were fasted (36 hours) and refed (48 hours) to induce cholesterolgenic enzymes prior to sacrifice. The specific activity of HMGR, total serum cholesterol levels, LDL cholesterol and HDL cholesterol pools were determined (Table 6).

[1] = test system: cholesterol biosynthesis in HepG2 cells; test: HepG2 cell culture model - 14C-acetate incorporation assay (cholesterol synthesis); type: cell-based; conditions: 3-4 hours incubation, 2-14C-acetate incorporation into digitonin-precipitable sterols, vs. vehicle controls
Protocol: HepG2 Cell Culture Model - 14C-Acetate Incorporation Assay
After 16 hours in LDS containing media, test compounds were added in dimethylsulfoxide vehicle (0.5% v/v final conc.) for an incubation period of 3-4 hours. Cholesterol synthesis was then directly determined by 2-14C-acetate (1.8 mCi/mmol, 0.5 µCi/ml) incorporation for 30 to 60 minutes (previously shown to be time-linear) into total digitonin-precipitable sterols. […] Percent inhibition was calculated from the average of duplicates vs. triplicate vehicle controls conducted simultaneously.

[2] = test system: Normocholesterolemic Chickens; test: In vivo evaluation in normocholesterolemic chickens - serum cholesterol pools; conditions: 6-week old male chickens, 50 ppm in diet for four weeks; for Total Cholesterol: serum
Protocol: as §1, §2

HMG-CoA reductase = test: HepG2 cell culture model - HMG-CoA reductase suppression assay; type: cell-based; conditions: HepG2 cells, 4 hours of incubation at 37°, decrease in specific activity vs. vehicle controls
Protocol: HepG2 Cell Culture Model - HMG-CoA Reductase Suppression Assay
HMG-CoA reductase suppression in HepG2 cells was conducted by growing cells in RPMT-1640 plus 10% FBS on 100 mm plates, and when cells reached approximately 75% confluency, inducing with LDS (as described above) for 16 hours prior to assays. Compounds were added using dimethylsulfoxide vehicle (0.5% v/v, final) and after 4 hours of incubation at 37°, cells were harvested by scraping. Cell pellets were rinsed and lysed by sonication in 1.7 ml cold 50 mM imidazole-HCl, pH 7.2, 50 mM NaCl, 10 mM EDTA, 10 mM EGTA, 5mM DTT, and 40 µM leupeptin). Lysates were centrifuged at 150 x g and the supernatant was centrifuged at 100,000 x g in a Beckman airfuge to isolate the post-nuclear total membrane fraction. The membranes were resuspended in 50 mM imidazole-HCl, pH 7.2, 250 mM NaCl, 5 mM DTT, and 20 µM leupeptin and used for the assay of HMG-CoA reductase activity by the radiochemical procedure as described previously by Parker et al., J. Biol. Chem., 264: 4877-4887, (1989). Values were normalized for protein content by the Lowry method as cited previously (ibid). HMG-CoA reductase percent suppression was calculated as the decrease in specific activity of HMG-CoA reductase for treated cells vs. controls receiving vehicle. Averages of duplicate cell determinations assayed in duplicate were taken.

| Compound | HMGR (HMGR) | inhibition at 10 µM ([1]; Homo sapiens, read-out: Sterol Biosynthesis % Inhibition 10µM) [%] | HDL Cholesterol [2] | LDL Cholesterol [2] | Total Cholesterol [2] | HMG-CoA Reductase Suppression % 10µM (HMG-CoA reductase) [%] | Sterol Biosynthesis % Inhibition 10µM [1] [%] |
| --- | --- | --- | --- | --- | --- | --- | --- |
| CC(C)=CCC/C(C)=C/CC/C(C)=C/CCCOc1ccc(NS(C)(=O)=O)cc1 [Example 25, N-[4-[(5,9,13-Trimethyl-4(E), 8(E),12-tetradecatrienyl)oxy]phenyl]methanesulfonamide] | 86 % of Control | 77 | 91 % of Control | 45 % of Control | 72 % of Control | 9 | – |
| γ-tocotrienol [reference compound] | 82 % of Control | – | 91 % of Control | 44 % of Control | 75 % of Control | 63 | 69 |
